The nature of data set [1]: Particle size and PDI of lipid nanoparticles by dynamic light scattering. In kind it is physicochemical. The note with it: lipid nanoparticle with the cationic lipid, cholesterol, DSPC, DMG-PEG2000 (50/38.5/10/1.5 mol%), luciferase mRNA, N/P 6. As for the experimental part:
(§1) Lipid nanoparticles were prepared by (1) dissolving and mixing ionizable lipid compounds, cholesterol, phospholipids and polyethylene glycolated lipids in ethanol at (molar percentages) 50%, 38.5%, 10% and 1.5%, respectively; (2) dissolving the mRNA active ingredient in 25 mM sodium acetate solution (pH=4.5); (3) using an automated high-throughput microfluidic system to mix the organic phase containing the lipid mixture and the aqueous phase containing the mRNA component in the flow ratio range of 1:1 to 1:4 at a mixing speed of 10 mL/min to 18 mL/min; (4) the prepared lipid nanoparticles (N/P ratio of 6) were diluted with phosphate buffer solution and the nanoparticle solutions were ultrafiltered to the original preparation volume using ultrafiltration tubes (purchased from Millipore) with a cut-off molecular weight of 30 kDa; and (5) the obtained nanoparticles were filtered through a sterile 0.2 μm filter membrane and then stored in a sealed glass vial at low temperature.
(§2) The particle size and particle size dispersity index (PDI) of the prepared lipid nanoparticles were measured using a Zetasizer Pro (purchased from Malvern Instruments Ltd) and a DynaPro NanoStar (purchased from Wyatt) dynamic light scattering instrument. The degree of RNA encapsulation by lipid nanoparticles was characterized by the Encapsulation Efficiency %, which reflects the degree of binding of lipid nanoparticles to RNA fragments. This parameter was measured by the method of Quant-It™ RiboGreen RNA Assay (purchased from Invitrogen). Lipid nanoparticle samples were diluted in TE buffer (10 mM Tris-HCl, 1 mM EDTA, pH=7.5). A portion of the sample solution was removed, to which 0.5% Triton (Triton X-100) was added, and then allowed to stand at 37° C. for 30 minutes. Immediately after the addition of RIBOGREEN® reaction solution, the fluorescence values were read on a Varioskan LUX multifunctional microplate reader (purchased from Thermofisher) at 485 nm for absorption and 528 nm for emission to give the encapsulation efficiency values.

Data set [2] in a line: Encapsulation efficiency of lipid nanoparticles, Quant-It RiboGreen RNA Assay. In kind it is physicochemical. The note with it: lipid nanoparticle with the cationic lipid, luciferase mRNA. As for the experimental part:
as §1, §2

Regarding `CCCCCCCCCCOC(=O)C(C)(C)CCCCCC(CCCCCC(C)(C)C(=O)OCCCCCCCCCC)OC(=O)CCN(C)C` [Compound 1], in data set [1], the “Particle size (nm)” value came to 80.07 nm and the “Particle size dispersity (PDI)” value is on record as 0.06. Also, the “Encapsulation efficiency (%)” value in data set [2] came to 91.54%.
Turning to `CCCCCCCCOC(=O)C(C)(C)CCCCCC(CCCCCC(C)(C)C(=O)OCCCCCCCC)OC(=O)CCN(C)C` [Compound 2], in data set [1], the “Particle size (nm)” value is 229.35 nm and the “Particle size dispersity (PDI)” value stood at 0.03. Further, in data set [2], the “Encapsulation efficiency (%)” value is 79.14%.
Take `CCCCCCCCCOC(=O)C(C)(C)CCCCCC(CCCCCC(C)(C)C(=O)OCCCCCCCCC)OC(=O)CCN(C)C` [Compound 3]: in data set [1], the “Particle size (nm)” value was determined as 133.80 nm and the “Particle size dispersity (PDI)” value is given as 0.04. Moreover, the “Encapsulation efficiency (%)” value in data set [2] came out at 86.88%.
On the same counts, the results for `CC(C)CCCC(C)CCOC(=O)C(C)(C)CCCCCC(CCCCCC(C)(C)C(=O)OCCC(C)CCCC(C)C)OC(=O)CCN(C)C` (stereo not drawn) [Compound 6] are 106.18 nm, 0.05 and 90.26%.
On the same counts, the results for `CC/C=C\CCCCCOC(=O)C(C)(C)CCCCCC(CCCCCC(C)(C)C(=O)OCCCCC/C=C\CC)OC(=O)CCN(C)C` [Compound 7] are 203.67 nm, 0.04 and 69.51%.
Consider `CCCCCCCCCCNC(=O)C(C)(C)CCCCCC(CCCCCC(C)(C)C(=O)NCCCCCCCCCC)OC(=O)CCN(C)C` [Compound 8], for which, in data set [1], the “Particle size (nm)” value turned out to be 127.82 nm and the “Particle size dispersity (PDI)” value is given as 0.07. Besides, the “Encapsulation efficiency (%)” value in data set [2] stood at 60.36%.
In the same order, the values of `CCCCCCCCCNC(=O)C(C)(C)CCCCCC(CCCCCC(C)(C)C(=O)NCCCCCCCCC)OC(=O)CCN(C)C` [Compound 9] are 352.82 nm, 0.07 and 19.41%.
With `CCCCCCCCCCCCNC(=O)C(C)(C)CCCCCC(CCCCCC(C)(C)C(=O)NCCCCCCCCCCCC)OC(=O)CCN(C)C` [Compound 10], in data set [1], the “Particle size (nm)” value worked out at 118.59 nm and the “Particle size dispersity (PDI)” value came to 0.07. Besides, the “Encapsulation efficiency (%)” value in data set [2] is given as 53.83%.
`CCCCCCCCC(CCCCCCCC)NC(=O)C(C)(C)CCCCCC(CCCCCC(C)(C)C(=O)NC(CCCCCCCC)CCCCCCCC)OC(=O)CCN(C)C` [Compound 11]: in data set [1], the “Particle size (nm)” value worked out at 46.49 nm and the “Particle size dispersity (PDI)” value is 0.03. Besides, the “Encapsulation efficiency (%)” value in data set [2] is given as 95.61%.
In the same order, the values of `CCCCCCCCCN(CCCCCCCCC)C(=O)C(C)(C)CCCCCC(CCCCCC(C)(C)C(=O)N(CCCCCCCCC)CCCCCCCCC)OC(=O)CCN(C)C` [Compound 12] are 89.34 nm, 0.07 and 85.02%.
Turning to `CCCCCCCCCCOC(=O)C(C)(C)CCCCCC(CCCCCC(C)(C)C(=O)OCCCCCCCCCC)OC(=O)CN(C)C` [Compound 17], in data set [1], the “Particle size (nm)” value is reported as 81.43 nm and the “Particle size dispersity (PDI)” value turned out to be 0.12. In addition, in data set [2], the “Encapsulation efficiency (%)” value amounted to 30.95%.
Take `CCCCCCCCCCOC(=O)C(C)(C)CCCCCC(CCCCCC(C)(C)C(=O)OCCCCCCCCCC)OC(=O)CCCN(C)C` [Compound 18]: in data set [1], the “Particle size (nm)” value is reported as 161.29 nm and the “Particle size dispersity (PDI)” value worked out at 0.05. Further, the “Encapsulation efficiency (%)” value in data set [2] is given as 87.86%.
In the case of `CCCCCCCCOC(=O)C(C)(C)CCCCCC(CCCCCC(C)(C)C(=O)OCCCCCCCC)OC(=O)CCCN(C)C` [Compound 19], in data set [1], the “Particle size (nm)” value came out at 135.15 nm and the “Particle size dispersity (PDI)” value is recorded as 0.19. Moreover, the “Encapsulation efficiency (%)” value in data set [2] came out at 67.96%.
On to `CCCCCCCC#CCOC(=O)C(C)(C)CCCCCC(CCCCCC(C)(C)C(=O)OCC#CCCCCCCC)OC(=O)CCCN(C)C` [Compound 23], for which, in data set [1], the “Particle size (nm)” value came out at 151.35 nm and the “Particle size dispersity (PDI)” value turned out to be 0.07. For the same molecule, in data set [2], the “Encapsulation efficiency (%)” value was 70.22%.
As for `CCCCCCC#CCCOC(=O)C(C)(C)CCCCCC(CCCCCC(C)(C)C(=O)OCCC#CCCCCCC)OC(=O)CCCN(C)C` [Compound 24], in data set [1], the “Particle size (nm)” value is reported as 133.72 nm and the “Particle size dispersity (PDI)” value is 0.04. For the same molecule, in data set [2], the “Encapsulation efficiency (%)” value stood at 60.98%.
Consider `CCCCC#CCCCCOC(=O)C(C)(C)CCCCCC(CCCCCC(C)(C)C(=O)OCCCCC#CCCCC)OC(=O)CCCN(C)C` [Compound 25], for which, in data set [1], the “Particle size (nm)” value is 236.90 nm and the “Particle size dispersity (PDI)” value is 0.06. The “Encapsulation efficiency (%)” value in data set [2] is 32.43%.
For the molecule `CCCCCCC/C=C\COC(=O)C(C)(C)CCCCCC(CCCCCC(C)(C)C(=O)OC/C=C\CCCCCCC)OC(=O)CCCN(C)C` [Compound 26], in data set [1], the “Particle size (nm)” value was determined as 96.69 nm and the “Particle size dispersity (PDI)” value was 0.05. Moreover, in data set [2], the “Encapsulation efficiency (%)” value was determined as 81.29%.
As for `CCCCCC/C=C\CCOC(=O)C(C)(C)CCCCCC(CCCCCC(C)(C)C(=O)OCC/C=C\CCCCCC)OC(=O)CCCN(C)C` [Compound 27], in data set [1], the “Particle size (nm)” value turned out to be 105.70 nm and the “Particle size dispersity (PDI)” value amounted to 0.05. The “Encapsulation efficiency (%)” value in data set [2] worked out at 88.99%.
In the case of `CCCCCCCCCCSC(=O)C(C)(C)CCCCCC(CCCCCC(C)(C)C(=O)SCCCCCCCCCC)OC(=O)CCN(C)C` [Compound 33], in data set [1], the “Particle size (nm)” value stood at 105.84 nm and the “Particle size dispersity (PDI)” value is 0.04. In addition, the “Encapsulation efficiency (%)” value in data set [2] was found to be 88.67%.
Take `CCCCCCCCCCSC(=O)C(C)(C)CCCCCC(CCCCCC(C)(C)C(=O)SCCCCCCCCCC)OC(=O)CCCN(C)C` [Compound 34]: in data set [1], the “Particle size (nm)” value is 104.71 nm and the “Particle size dispersity (PDI)” value is on record as 0.04. Further, the “Encapsulation efficiency (%)” value in data set [2] stood at 90.29%.
As to `CCCCCCCCCCSC(=O)C(C)(C)CCCCCC(CCCCCC(C)(C)C(=O)SCCCCCCCCCC)OC(=O)CCCCCN(C)C` [Compound 36], in data set [1], the “Particle size (nm)” value is on record as 88.33 nm and the “Particle size dispersity (PDI)” value is 0.07. Besides, the “Encapsulation efficiency (%)” value in data set [2] stood at 97.52%.
On to `CCCCCCCCCCSC(=O)C(C)(C)CCCCCC(CCCCCC(C)(C)C(=O)OCCCCCCCCC)OC(=O)CCCN(C)C` (stereo not drawn) [Compound 40], for which, in data set [1], the “Particle size (nm)” value is given as 83.90 nm and the “Particle size dispersity (PDI)” value is listed as 0.05. For the same molecule, the “Encapsulation efficiency (%)” value in data set [2] is reported as 97.06%.
As for `CCCCCCC#CCOC(=O)C(C)(C)CCCCCC(CCCCCC(C)(C)C(=O)OCCCCCCCCC)OC(=O)CCCN(C)C` (stereo not drawn) [Compound 42], in data set [1], the “Particle size (nm)” value is recorded as 152.04 nm and the “Particle size dispersity (PDI)” value was determined as 0.07. Moreover, in data set [2], the “Encapsulation efficiency (%)” value was 71.95%.
As to `CCCCCCCCCCOC(=O)C(C)(C)CCCCCC(CCCCCC(C)(C)C(=O)OCCCCCCCCCC)OC(=O)CCN1CCOCC1` [Compound 90], in data set [1], the “Particle size (nm)” value turned out to be 18.17 nm and the “Particle size dispersity (PDI)” value came out at 0.05. Moreover, in data set [2], the “Encapsulation efficiency (%)” value is 83.21%.
Consider `CCCCCCCCCCOC(=O)C(C)(C)CCCCCC(CCCCCC(C)(C)C(=O)OCCCCCCCCCC)OC(=O)CN1CCOCC1` [Compound 91], for which, in data set [1], the “Particle size (nm)” value is given as 32.61 nm and the “Particle size dispersity (PDI)” value came out at 0.05. Further, the “Encapsulation efficiency (%)” value in data set [2] was found to be 102.99%.
In the same order, the values of `CCCCCCCCCCOC(=O)C(C)(C)CCCCCC(CCCCCC(C)(C)C(=O)OCCCCCCCCCC)OC(=O)CCN1CCCC1` [Compound 92] are 107.56 nm, 0.05 and 91.66%.
In the same order, the values of `CCCCCCC/C=C\COC(=O)CC(C)(C)CCCCC(CCCCC(C)(C)CC(=O)OCC(CCCCC)CCCCCCC)OC(=O)CCCN(C)C` (stereo not drawn) [Compound 98] are 107.87 nm, 0.13 and 93.28%.
`CCCCCCCCOC(=O)C(C)(C)CCCCCC(CCCCCC(C)(C)C(=O)OCCCCCCCC)OC(=O)C1CCN(C(C)C)CC1` [Compound 101]: in data set [1], the “Particle size (nm)” value was 152.45 nm and the “Particle size dispersity (PDI)” value was determined as 0.06. Further, the “Encapsulation efficiency (%)” value in data set [2] amounted to 76.09%.
In the same order, the values of `CCCCCCCCCOC(=O)C(C)(C)CCCCCC(CCCCCC(C)(C)C(=O)OCCCCCCCCC)OC(=O)C1CCN(C)CC1` [Compound 102] are 102.18 nm, 0.03 and 90.03%.
In the same order, the values of `CCCCCCCCCOC(=O)C(C)(C)CCCCCC(CCCCCC(C)(C)C(=O)OCCCCCCCCC)OC(=O)C1CCN(C(C)C)CC1` [Compound 103] are 148.67 nm, 0.04 and 90.97%.

(Values after patent US12162819B2, “Ionizable lipid compounds” (Beijing Jitai Pharmaceutical Technology Co., Ltd., priority 2022, dated 2024).)
